How the values were obtained:
neonatal murine calvaria = conditions: L-arginine alone, 20 μM
Protocol: Selected compounds and appropriate controls were assayed in vitro (ex vivo) for bone formation activity (described above in “In Vitro Neonatal Mouse Calvaria Assay”). Histomorphometrical assessments of ex vivo calvaria were carried out using an OsteoMetrics bone morphometry measurement program, according to the manufacturer's instructions. Measurements were determined using either a 10- or 20-fold objective with a standard point counting eyepiece graticule.

osteoprogenitor cells = conditions: cells treated with dexamethasone in vitro; Cui et al. 1996; cited from earlier work
bone resorption = conditions: lipid clearing agents; Wang et al. 1995; cited from earlier work
three month old S-D rats = experiment: Bone mineral density in rats treated orally by gavage for 16 weeks; assay type: in vivo, rat; conditions: oral gavage, S-D rats (FIG. 4 lower panel)
Protocol: Statin equivalence: 100 mg/kg/day=0.72 mg/day; 400 mg/kg/day=2.9 mg/day; and 800 mg/kg/day=5.8 mg/day.
In this experiment, experimental groups of three month old S-D rats were used. Food was removed from the cages 6 hours prior to dosing. The animals were then treated orally by gavage once a day with vehicle (0.5% methylcellulose), lovastatin, or OsteoPure™ (lovastatin-containing reduced rice extract). OsteoPure™ was administered at 100, 400, or 800 mg/kg/day five days a week for 16 weeks. The statin equivalence in OsteoPure™ is 100 mg/kg/day=0.72 mg/day; 400 mg/kg/day=2.9 mg/day; and 800 mg/kg/day=5.8 mg/day. Rats were weighed weekly. Bone mineral density (BMD) were analyzed every four weeks. In the upper panel, the bone mineral densities (BMDs) are shown. In the lower panel, the % change in BMDs of the experimental over the 16 weeks is shown. […] This trend is confirmed in the long term analysis of percent change in BMDs shown in the lower panel.

bone mass = conditions: Horiuchi et al. 2001, Kinoshita et al. 2000; cited from earlier work
rats = conditions: injected locally into the subcutaneous tissues of rats; Wozney 1992; cited from earlier work

**Q.** For N=C(N)NCCC[C@H](N)C(=O)O [L-arginine], which bone formation (neonatal murine calvaria) is on record?
**A.** induces bone formation

**Q.** What does the source list for CC[C@H](C)C(=O)O[C@H]1C[C@@H](C)C=C2C=C[C@H](C)[C@H](CC[C@@H]3C[C@@H](O)CC(=O)O3)[C@H]21 [lovastatin]?
**A.** triglyceride vesicles in osteoprogenitor cells (osteoprogenitor cells): diminished triglyceride vesicles; bone resorption induced by steroid administration (bone resorption): inhibit bone resorption induced by steroid administration; percent change in BMDs over 16 weeks, co-administered with L-arginine relative to the agent alone (three month old S-D rats): greater increase in BMDs

**Q.** Which bone mass (bone mass) does the source give for CC(=O)CCCCn1c(=O)c2c(ncn2C)n(C)c1=O [pentoxifylline] here?
**A.** increase bone mass by promoting bone formation

**Q.** For COc1ccc(C2CNC(=O)C2)cc1OC1CCCC1 (stereo not shown) [rolipram], which bone mass (bone mass) is on record?
**A.** increase bone mass by promoting bone formation

B1: BMP-4: recombinant bone morphogenic protein (protein, UniProt P12644 293-408, looked up)
Bone morphogenetic protein 4: SPKHHSQRARKKNKNCRRHSLYVDFSDVGWNDWIVAPPGYQAFYCHGDCPFPLADHLNSTNHAIVQTLVNSVNSSIPKACCVPTELSAISMLYLDEYDKVVLKNYQEMVVEGCGCR
**Q.** With B1 as the molecule, how does the new bone formation (rats) read?
**A.** can induce new bone formation
